Laboratory results taken from patent US20240124465A1, “MOLECULES AND METHODS RELATED TO TREATMENT OF DISORDERS ASSOCIATED WITH JAK-2 SIGNALING DYSFUNCTION” (ST. JUDE CHILDREN'S RESEARCH HOSPITAL, priority 2020, published 2024).

What was measured:
Format in all cases: cell-based
MHH-CALL-4 cells = experiment: Cytotoxicity assay (resazurin, 72 hours); design: AUC: unit not given beside the values; settings: for EC50: MHHCALL4, resazurin; for AUC: area under the dose-response curve
How it was run: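 Cells grown in RPMI1640 with 10% FBS, 2×10⁵ per well, were exposed to pin-transferred compounds in triplicate for 72 h at 37 °C, 5% CO2. Viability was read after 4 h resazurin incubation. Dose-response AUC was calculated per compound; selected data were fitted by non-linear regression.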

JAK1 = molecular target: T1, JAK1 (Homo sapiens, UniProt P23458); experiment: Western blot assay, JAK1 protein degradation; settings: MHH-CALL-4 cells, vehicle control = 100%
T1 construct: endogenous in cells; host or cells: MHH-CALL-4
T1 sequence (P23458 whole entry): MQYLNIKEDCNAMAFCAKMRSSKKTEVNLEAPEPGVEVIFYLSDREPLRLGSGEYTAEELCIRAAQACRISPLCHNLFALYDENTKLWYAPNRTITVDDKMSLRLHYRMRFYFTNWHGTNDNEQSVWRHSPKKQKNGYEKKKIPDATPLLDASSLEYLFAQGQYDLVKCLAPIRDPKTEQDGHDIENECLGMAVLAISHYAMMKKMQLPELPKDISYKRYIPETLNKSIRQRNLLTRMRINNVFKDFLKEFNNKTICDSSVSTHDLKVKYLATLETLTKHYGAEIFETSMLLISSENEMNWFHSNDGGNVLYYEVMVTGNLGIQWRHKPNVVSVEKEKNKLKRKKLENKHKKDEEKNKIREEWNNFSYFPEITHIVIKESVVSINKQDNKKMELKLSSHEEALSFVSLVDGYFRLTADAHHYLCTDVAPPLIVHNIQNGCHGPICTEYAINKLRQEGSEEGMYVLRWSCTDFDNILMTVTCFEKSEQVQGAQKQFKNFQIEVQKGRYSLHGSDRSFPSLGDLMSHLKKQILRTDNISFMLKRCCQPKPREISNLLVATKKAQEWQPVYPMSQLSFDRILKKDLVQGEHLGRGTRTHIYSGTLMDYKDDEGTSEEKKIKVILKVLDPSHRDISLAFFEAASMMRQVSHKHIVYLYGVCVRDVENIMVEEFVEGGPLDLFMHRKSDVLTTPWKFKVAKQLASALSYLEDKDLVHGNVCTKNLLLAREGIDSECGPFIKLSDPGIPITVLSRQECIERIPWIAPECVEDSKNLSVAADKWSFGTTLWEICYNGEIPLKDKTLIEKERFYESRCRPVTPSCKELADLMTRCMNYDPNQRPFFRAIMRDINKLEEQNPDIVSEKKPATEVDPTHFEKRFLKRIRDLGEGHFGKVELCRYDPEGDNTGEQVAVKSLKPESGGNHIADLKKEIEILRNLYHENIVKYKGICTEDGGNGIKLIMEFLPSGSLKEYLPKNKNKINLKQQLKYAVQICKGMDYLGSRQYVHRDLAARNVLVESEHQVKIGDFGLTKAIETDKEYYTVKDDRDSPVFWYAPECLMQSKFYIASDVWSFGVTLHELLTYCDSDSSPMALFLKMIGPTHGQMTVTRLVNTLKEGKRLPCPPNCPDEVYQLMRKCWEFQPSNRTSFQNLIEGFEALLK
How it was run: (§1)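 Cells (MHH-CALL-4) are washed in cold PBS, lysed in RIPA buffer and cleared at 13,000 g, 4° C. Reduced, denatured protein is run on 4%-12% gels, blotted and imaged by fluorescence; each target signal is divided by ACBT and scaled to vehicle (100%).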

JAK2 = experiment: Western blot assay, JAK2 protein degradation; settings: MHH-CALL-4 cells, vehicle control = 100%
How it was run: as §1

JAK3 = molecular target: T2, JAK3 (Homo sapiens, UniProt P52333); experiment: Western blot assay, JAK3 protein degradation; settings: MHHCALL4; 100 nM, 24 h; MHH-CALL-4 cells; vehicle control = 100%; read-out: Target Protein Degradation (% remaining at 100 nM, 24 h) JAK3
T2 construct: endogenous in cells; host or cells: MHH-CALL-4
T2 sequence (P52333 1-1124): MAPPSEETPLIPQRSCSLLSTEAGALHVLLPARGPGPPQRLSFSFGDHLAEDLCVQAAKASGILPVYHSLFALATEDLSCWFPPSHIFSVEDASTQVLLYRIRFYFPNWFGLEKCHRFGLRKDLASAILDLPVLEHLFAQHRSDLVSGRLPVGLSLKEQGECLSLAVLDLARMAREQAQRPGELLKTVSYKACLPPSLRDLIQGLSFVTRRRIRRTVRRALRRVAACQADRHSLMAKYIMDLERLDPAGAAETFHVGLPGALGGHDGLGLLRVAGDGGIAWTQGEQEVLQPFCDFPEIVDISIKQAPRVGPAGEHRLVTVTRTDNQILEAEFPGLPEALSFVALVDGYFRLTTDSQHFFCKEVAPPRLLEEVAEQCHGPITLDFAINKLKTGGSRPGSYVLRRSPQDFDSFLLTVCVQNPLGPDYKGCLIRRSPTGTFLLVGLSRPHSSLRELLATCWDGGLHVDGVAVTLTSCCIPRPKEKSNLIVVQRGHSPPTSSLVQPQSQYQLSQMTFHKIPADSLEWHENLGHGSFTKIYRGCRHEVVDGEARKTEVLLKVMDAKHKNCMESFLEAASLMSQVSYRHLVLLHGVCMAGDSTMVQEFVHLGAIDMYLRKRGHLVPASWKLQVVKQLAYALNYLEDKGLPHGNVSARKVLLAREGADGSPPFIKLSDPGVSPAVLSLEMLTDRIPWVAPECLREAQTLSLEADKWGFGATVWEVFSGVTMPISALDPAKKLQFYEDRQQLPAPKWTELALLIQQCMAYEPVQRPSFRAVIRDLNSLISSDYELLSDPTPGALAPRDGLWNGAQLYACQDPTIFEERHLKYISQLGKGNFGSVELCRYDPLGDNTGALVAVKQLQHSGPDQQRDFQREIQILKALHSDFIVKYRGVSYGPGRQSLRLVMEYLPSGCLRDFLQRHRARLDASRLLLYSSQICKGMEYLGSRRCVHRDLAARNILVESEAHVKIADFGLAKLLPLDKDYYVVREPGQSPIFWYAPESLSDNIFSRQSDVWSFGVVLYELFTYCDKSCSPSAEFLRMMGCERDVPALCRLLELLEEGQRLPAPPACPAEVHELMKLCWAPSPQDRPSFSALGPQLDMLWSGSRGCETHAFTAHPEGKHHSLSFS
How it was run: as §1

TYK2 = molecular target: T3, TYK2 (Homo sapiens, UniProt P29597); experiment: Western blot assay, TYK2 protein degradation; settings: MHH-CALL-4 cells, vehicle control = 100%
T3 construct: endogenous in cells; host or cells: MHH-CALL-4
T3 sequence (P29597 whole entry): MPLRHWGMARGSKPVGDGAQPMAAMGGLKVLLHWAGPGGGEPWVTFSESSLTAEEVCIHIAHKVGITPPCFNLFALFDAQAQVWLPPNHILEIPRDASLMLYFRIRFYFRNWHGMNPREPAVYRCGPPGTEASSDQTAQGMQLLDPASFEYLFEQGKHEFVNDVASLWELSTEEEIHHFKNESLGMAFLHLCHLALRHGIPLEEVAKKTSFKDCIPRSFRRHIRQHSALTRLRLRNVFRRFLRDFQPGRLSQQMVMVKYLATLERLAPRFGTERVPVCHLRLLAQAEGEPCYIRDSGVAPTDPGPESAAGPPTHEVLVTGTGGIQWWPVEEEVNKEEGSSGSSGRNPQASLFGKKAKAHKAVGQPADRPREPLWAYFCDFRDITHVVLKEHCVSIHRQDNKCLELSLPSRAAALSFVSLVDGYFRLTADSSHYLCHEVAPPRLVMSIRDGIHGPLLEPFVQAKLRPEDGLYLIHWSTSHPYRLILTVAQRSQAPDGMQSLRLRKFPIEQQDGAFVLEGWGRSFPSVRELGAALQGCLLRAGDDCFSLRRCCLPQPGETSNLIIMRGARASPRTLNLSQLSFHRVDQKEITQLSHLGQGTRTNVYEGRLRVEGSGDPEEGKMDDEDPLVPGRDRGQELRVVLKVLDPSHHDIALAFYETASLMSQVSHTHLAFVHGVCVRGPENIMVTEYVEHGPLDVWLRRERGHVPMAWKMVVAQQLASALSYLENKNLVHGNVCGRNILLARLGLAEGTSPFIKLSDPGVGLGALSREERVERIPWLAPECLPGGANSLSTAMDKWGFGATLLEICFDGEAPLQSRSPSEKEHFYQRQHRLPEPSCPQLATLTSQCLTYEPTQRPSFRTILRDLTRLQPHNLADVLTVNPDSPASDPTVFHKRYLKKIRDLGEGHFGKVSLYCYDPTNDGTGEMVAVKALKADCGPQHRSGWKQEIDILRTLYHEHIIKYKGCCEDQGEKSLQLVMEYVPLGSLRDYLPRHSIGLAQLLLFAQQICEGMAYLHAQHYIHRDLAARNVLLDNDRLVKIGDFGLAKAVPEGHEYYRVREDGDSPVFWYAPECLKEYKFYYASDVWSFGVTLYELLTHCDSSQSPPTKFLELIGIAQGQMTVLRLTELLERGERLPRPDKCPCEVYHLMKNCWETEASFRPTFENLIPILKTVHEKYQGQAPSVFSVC
Procedure: (§2) Western blot assay: MHH-CALL-4 Cells were washed twice with ice-cold PBS and lysed in RIPA lysis buffer (Sigma) freshly supplemented with Halt™ Protease Inhibitor Cocktail (ThermoFisher) for 15 minutes on ice. The cell pellet was removed by centrifugation at 13,000 g at 4° C. for 15 minutes. Protein concentration was measured by BCA assay (Thermo Fisher Scientific). Proteins were denatured in NuPAGE LDS 4× sample buffer supplemented with reducing agents (Invitrogen). Typically, 10-20 μg of total protein was loaded per lane on a 4%-12% NUPAGE Bis-Tris gradient gel (Invitrogen) and analyzed by standard immunoblotting and imaged using Li—COR Odyssey CLx (LI-COR Biotechnology, Lincoln, NE). To access the protein degradation, the signal of target protein was normalized by the signal of ACBT and the signal of vehicle control was set as 100%. Primary antibodies used were: JAK1 (Cell Signaling #3332S), JAK2 (#3230S), JAK3 (#8827S), TYK2 (#9312S), GSPT1 (#14980S), CRBN (#71810S), IKZF1 (Santa Cruz Biotechnology, SC-398265) and ACBT (Santa Cruz Biotechnology, SC-47778).

GSPT1 = molecular target: T4, GSPT1 (Homo sapiens, UniProt P15170); experiment: Western blot assay, GSPT1 neosubstrate degradation; settings: MHHCALL4; 100 nM, 24 h; MHH-CALL-4 cells; vehicle control = 100%
T4 construct: endogenous in cells; host or cells: MHH-CALL-4
T4 sequence (P15170 whole entry): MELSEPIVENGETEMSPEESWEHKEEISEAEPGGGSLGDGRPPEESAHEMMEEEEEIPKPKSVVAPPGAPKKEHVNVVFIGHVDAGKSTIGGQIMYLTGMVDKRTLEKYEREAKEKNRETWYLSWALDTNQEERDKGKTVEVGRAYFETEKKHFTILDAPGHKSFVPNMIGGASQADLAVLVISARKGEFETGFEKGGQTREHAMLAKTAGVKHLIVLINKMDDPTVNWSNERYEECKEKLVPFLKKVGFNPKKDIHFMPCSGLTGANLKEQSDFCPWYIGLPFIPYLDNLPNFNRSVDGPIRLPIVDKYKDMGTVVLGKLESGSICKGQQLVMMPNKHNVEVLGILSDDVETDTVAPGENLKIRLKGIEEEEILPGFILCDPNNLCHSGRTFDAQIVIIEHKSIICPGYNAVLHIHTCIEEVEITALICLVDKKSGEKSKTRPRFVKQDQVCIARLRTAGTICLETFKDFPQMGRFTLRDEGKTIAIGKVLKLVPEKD
How it was run: as §1

IKZF1 = molecular target: T5, IKZF1 (Homo sapiens, UniProt Q13422); experiment: Western blot assay, IKZF1 neosubstrate degradation; settings: MHH-CALL-4 cells, vehicle control = 100%
T5 construct: endogenous in cells; host or cells: MHH-CALL-4
T5 sequence (Q13422 whole entry): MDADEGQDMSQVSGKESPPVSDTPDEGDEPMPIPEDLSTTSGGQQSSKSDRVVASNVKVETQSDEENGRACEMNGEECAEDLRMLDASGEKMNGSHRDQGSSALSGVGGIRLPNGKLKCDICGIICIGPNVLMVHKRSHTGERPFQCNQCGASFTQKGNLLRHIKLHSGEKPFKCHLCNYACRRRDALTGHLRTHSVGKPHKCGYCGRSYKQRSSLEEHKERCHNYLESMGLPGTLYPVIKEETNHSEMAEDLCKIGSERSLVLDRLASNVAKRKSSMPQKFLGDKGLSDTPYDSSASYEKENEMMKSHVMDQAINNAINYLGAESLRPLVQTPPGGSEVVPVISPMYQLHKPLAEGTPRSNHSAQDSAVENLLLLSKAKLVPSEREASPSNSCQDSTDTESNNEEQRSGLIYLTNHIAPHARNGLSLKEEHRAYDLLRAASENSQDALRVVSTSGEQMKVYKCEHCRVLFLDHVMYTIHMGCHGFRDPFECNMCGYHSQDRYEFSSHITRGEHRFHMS
Procedure: as §2

CCS(=O)(=O)N1CC(CC#N)(n2cc(-c3nc(Nc4ccc(C(=O)NCCCCOc5ccc(C6CCC(=O)NC6=O)cc5)cc4)nc4[nH]ccc34)cn2)C1 (stereo not shown) [Compound 5]
EC50 (MHH-CALL-4 cells): 2.2 nM
AUC (MHH-CALL-4 cells): 124
Target Protein Degradation (% remaining at 100 nM, 24 h) JAK1 (JAK1): 124 % remaining
Target Protein Degradation (% remaining at 100 nM, 24 h) JAK2 (JAK2): 22 % remaining
remaining activity at 0.1 µM (JAK3): 65%
Target Protein Degradation (% remaining at 100 nM, 24 h) TYK2 (TYK2): 142 % remaining
remaining activity at 0.1 µM (GSPT1): 71%
Neosubstrate Degradation (% remaining at 100 nM, 24 h) IKZF1 (IKZF1): 79 % remaining

CCS(=O)(=O)N1CC(CC#N)(n2cc(-c3nc(Nc4ccc(C(=O)NCCNC(=O)COc5ccc(C6CCC(=O)NC6=O)cc5)cc4)nc4[nH]ccc34)cn2)C1 (stereo not shown) [Compound 17]
EC50 (MHH-CALL-4 cells): > 784 nM
Target Protein Degradation (% remaining at 100 nM, 24 h) JAK1 (JAK1): 105 % remaining
Target Protein Degradation (% remaining at 100 nM, 24 h) JAK2 (JAK2): 120 % remaining
remaining activity at 0.1 µM (JAK3): 102%
Target Protein Degradation (% remaining at 100 nM, 24 h) TYK2 (TYK2): 88 % remaining
remaining activity at 0.1 µM (GSPT1): 110%
Neosubstrate Degradation (% remaining at 100 nM, 24 h) IKZF1 (IKZF1): 96 % remaining

CCS(=O)(=O)N1CC(CC#N)(n2cc(-c3nc(Nc4ccc(C(=O)NCCCN5CCN(c6ccc(C7CCC(=O)NC7=O)cc6)CC5)cc4)nc4[nH]ccc34)cn2)C1 (stereo not shown) [Compound 10]
EC50 (MHH-CALL-4 cells): 2580 nM
AUC (MHH-CALL-4 cells): 114
Target Protein Degradation (% remaining at 100 nM, 24 h) JAK1 (JAK1): 86 % remaining
Target Protein Degradation (% remaining at 100 nM, 24 h) JAK2 (JAK2): 25 % remaining
remaining activity at 0.1 µM (JAK3): 46%
Target Protein Degradation (% remaining at 100 nM, 24 h) TYK2 (TYK2): 118 % remaining
remaining activity at 0.1 µM (GSPT1): 109%
Neosubstrate Degradation (% remaining at 100 nM, 24 h) IKZF1 (IKZF1): 87 % remaining

CCS(=O)(=O)N1CC(CC#N)(n2cc(-c3nc(Nc4ccc(C(=O)NCCCCOc5cccc(C6CCC(=O)NC6=O)c5)cc4)nc4[nH]ccc34)cn2)C1 (stereo not shown) [Compound 41, 4-((4-(1-(3-(cyanomethyl)-1-(ethylsulfonyl)azetidin-3-yl)-1H-pyrazol-4-yl)-7H-pyrrolo[2,3-d]pyrimidin-2-yl)amino)-N-(4-(3-(2,6-dioxopiperidin-3-yl)phenoxy)butyl)benzamide]
EC50 (MHH-CALL-4 cells): 51.2 nM
AUC (MHH-CALL-4 cells): 202
Target Protein Degradation (% remaining at 100 nM, 24 h) JAK1 (JAK1): 97 % remaining
Target Protein Degradation (% remaining at 100 nM, 24 h) JAK2 (JAK2): 28 % remaining
remaining activity at 0.1 µM (JAK3): 46%
Target Protein Degradation (% remaining at 100 nM, 24 h) TYK2 (TYK2): 125 % remaining

CCS(=O)(=O)N1CC(CC#N)(n2cc(-c3nc(Nc4ccc(C(=O)NCCN5CCN(c6ccc(C7CCC(=O)NC7=O)cc6)CC5)cc4)nc4[nH]ccc34)cn2)C1 (stereo not shown) [Compound 37, 4-((4-(1-(3-(cyanomethyl)-1-(ethylsulfonyl)azetidin-3-yl)-1H-pyrazol-4-yl)-7H-pyrrolo[2,3-d]pyrimidin-2-yl)amino)-N-(2-(4-(4-(2,6-dioxopiperidin-3-yl)phenyl)piperazin-1-yl)ethyl)benzamide]
EC50 (MHH-CALL-4 cells): 2.7 nM
AUC (MHH-CALL-4 cells): 149
Target Protein Degradation (% remaining at 100 nM, 24 h) JAK1 (JAK1): 120 % remaining
Target Protein Degradation (% remaining at 100 nM, 24 h) JAK2 (JAK2): 26 % remaining
remaining activity at 0.1 µM (JAK3): 58%
Target Protein Degradation (% remaining at 100 nM, 24 h) TYK2 (TYK2): 121 % remaining

CCS(=O)(=O)N1CC(CC#N)(n2cc(-c3nc(Nc4ccc(C(=O)NCCCCOc5ccc(C6CCC(=O)N(C)C6=O)cc5)cc4)nc4[nH]ccc34)cn2)C1 (stereo not shown) [Compound 47, 4-((4-(1-(3-(cyanomethyl)-1-(ethylsulfonyl)azetidin-3-yl)-1H-pyrazol-4-yl)-7H-pyrrolo[2,3-d]pyrimidin-2-yl)amino)-N-(4-(4-(1-methyl-2,6-dioxopiperidin-3-yl)phenoxy)butyl)benzamide]
EC50 (MHH-CALL-4 cells): 3.35 nM
Target Protein Degradation (% remaining at 100 nM, 24 h) JAK1 (JAK1): 114 % remaining
Target Protein Degradation (% remaining at 100 nM, 24 h) JAK2 (JAK2): 128 % remaining
remaining activity at 0.1 µM (JAK3): 101%
Target Protein Degradation (% remaining at 100 nM, 24 h) TYK2 (TYK2): 89 % remaining
remaining activity at 0.1 µM (GSPT1): 86%

CCS(=O)(=O)N1CC(CC#N)(n2cc(-c3nc(Nc4ccc(C(=O)NCCCNC(=O)COc5ccc(C6CCC(=O)NC6=O)cc5)cc4)nc4[nH]ccc34)cn2)C1 (stereo not shown) [Compound 18]
EC50 (MHH-CALL-4 cells): > 812 nM
AUC (MHH-CALL-4 cells): 95
Target Protein Degradation (% remaining at 100 nM, 24 h) JAK1 (JAK1): 83 % remaining
Target Protein Degradation (% remaining at 100 nM, 24 h) JAK2 (JAK2): 82 % remaining
remaining activity at 0.1 µM (JAK3): 80%
Target Protein Degradation (% remaining at 100 nM, 24 h) TYK2 (TYK2): 122 % remaining
remaining activity at 0.1 µM (GSPT1): 117%
Neosubstrate Degradation (% remaining at 100 nM, 24 h) IKZF1 (IKZF1): 105 % remaining
